# Measurements as given in US8048918B2, “Treatment of hyperproliferative diseases” (Vampex Limited, priority 2000, dated 2011).
# Where no end group is shown, it is not given here.
# System: COS-1 cells
# Test: proliferation assay of COS-1 cells (Coulter counter)
# Assay type: cell-based
# Details: P142 1 mg/ml, peptides 6 μM; 24 and 48 hours after treatment; FIG. 7
# Procedure: […] (COS1 and COS7) are purchased from the European Cell Culture Collection, thawed and propagated according to the instructions from the supplier; cells are cultured essentially in the same manner as for normal human keratinocytes (Example 3 above), except that cells are seeded at 20 000 cells/cm^2, with only one treatment with antibody P142, control immunoglobulin, peptide 589, peptide 592 or control peptide 24 hrs after seeding.
# Proliferation is assayed by counting cells in a Coulter counter, as described above.
sequence,measurement,value
GRVRLLNNWDVCA,proliferation of Cos-1 cells (cell numbers),marked reduction in proliferation
